Assay results taken from ChEMBL document CHEMBL5465560, “Selectivity Literature for EUbOPEN Chemogenomic Library” (2024).
Each block holds one compound with its values, some of them ahead of it.

Tests used:
[1] = biological target: Macrophage colony-stimulating factor 1 receptor (Homo sapiens) (UniProt P07333); assay: Selectivity interaction (KinaseProfiler screening (Millipore)) EUB0000601a CSF1R; settings: at 3 µM
[2] = biological target: Protein kinase C beta type (Homo sapiens, UniProt P05771); assay: Selectivity interaction (Kinase panel (literature)) EUB0001199aCl PRKCB; settings: at 1 µM
[3] = biological target: T1, Ephrin type-A receptor 6 (Homo sapiens) (UniProt Q9UF33); assay: Selectivity interaction (LanthaScreen Eu Kinase Binding Assay) EUB0001632a EPHA6; settings: at 10 µM
T1 sequence (whole entry): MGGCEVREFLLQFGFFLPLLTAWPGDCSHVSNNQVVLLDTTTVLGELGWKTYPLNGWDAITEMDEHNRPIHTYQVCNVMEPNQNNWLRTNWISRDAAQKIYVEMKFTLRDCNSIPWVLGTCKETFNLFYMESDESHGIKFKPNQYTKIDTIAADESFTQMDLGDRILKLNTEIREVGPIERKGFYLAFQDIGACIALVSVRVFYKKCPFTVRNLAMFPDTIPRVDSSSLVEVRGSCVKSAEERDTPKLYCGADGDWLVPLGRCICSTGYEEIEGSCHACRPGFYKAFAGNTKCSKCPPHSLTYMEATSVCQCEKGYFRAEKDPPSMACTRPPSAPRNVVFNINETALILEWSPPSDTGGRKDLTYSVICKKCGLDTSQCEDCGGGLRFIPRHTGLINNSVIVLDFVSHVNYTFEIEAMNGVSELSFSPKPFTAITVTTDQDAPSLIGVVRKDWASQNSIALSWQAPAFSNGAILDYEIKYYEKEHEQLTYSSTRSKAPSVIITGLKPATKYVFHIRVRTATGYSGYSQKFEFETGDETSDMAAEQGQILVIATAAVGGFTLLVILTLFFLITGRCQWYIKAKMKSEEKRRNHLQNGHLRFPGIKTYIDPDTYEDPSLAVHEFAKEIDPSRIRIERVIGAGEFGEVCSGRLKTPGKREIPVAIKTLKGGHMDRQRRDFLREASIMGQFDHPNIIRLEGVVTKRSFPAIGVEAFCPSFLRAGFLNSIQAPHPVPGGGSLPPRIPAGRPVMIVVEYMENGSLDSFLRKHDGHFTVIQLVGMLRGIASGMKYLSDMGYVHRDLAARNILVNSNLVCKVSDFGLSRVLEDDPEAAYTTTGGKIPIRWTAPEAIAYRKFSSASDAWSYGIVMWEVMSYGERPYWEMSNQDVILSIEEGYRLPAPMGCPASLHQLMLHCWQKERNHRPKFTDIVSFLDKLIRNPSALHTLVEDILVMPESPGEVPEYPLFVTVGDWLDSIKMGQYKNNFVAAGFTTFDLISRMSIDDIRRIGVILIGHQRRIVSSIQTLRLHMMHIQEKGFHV

[4] = biological target: Macrophage colony-stimulating factor 1 receptor (Homo sapiens) (UniProt P07333); assay: Selectivity interaction (KinomeScan (DiscoverX)) EUB0001079a CSF1R; settings: at 1 µM
[5] = biological target: NT-3 growth factor receptor (Homo sapiens, UniProt Q16288); assay: Selectivity interaction (KinomeScan (DiscoverX)) EUB0000045b NTRK3
[6] = biological target: Serine/threonine-protein kinase VRK2 (Homo sapiens) (UniProt Q86Y07); assay: Selectivity interaction (KinomeScan (DiscoverX)) EUB0000655a VRK2; settings: at 10 µM
[7] = biological target: Ribosomal protein S6 kinase alpha-1 (Homo sapiens, UniProt Q15418); assay: Selectivity interaction (KinomeScan (DiscoverX)) EUB0001619a RPS6KA1; settings: at 1 µM
[8] = biological target: Serine/threonine-protein kinase WNK3 (Homo sapiens) (UniProt Q9BYP7); assay: Selectivity interaction (ActivX KiNativ screen (ex vivo kinase selectivity in human PBMCs)) EUB0001619a WNK3; format: cell-based; settings: PBMC, at 1 µM
[9] = biological target: T2, Protein kinase C iota type (Homo sapiens) (UniProt P41743); assay: Selectivity interaction (KinomeScan (DiscoverX)) EUB0000618a PRKCI; settings: at 10 µM
T2 sequence (whole entry): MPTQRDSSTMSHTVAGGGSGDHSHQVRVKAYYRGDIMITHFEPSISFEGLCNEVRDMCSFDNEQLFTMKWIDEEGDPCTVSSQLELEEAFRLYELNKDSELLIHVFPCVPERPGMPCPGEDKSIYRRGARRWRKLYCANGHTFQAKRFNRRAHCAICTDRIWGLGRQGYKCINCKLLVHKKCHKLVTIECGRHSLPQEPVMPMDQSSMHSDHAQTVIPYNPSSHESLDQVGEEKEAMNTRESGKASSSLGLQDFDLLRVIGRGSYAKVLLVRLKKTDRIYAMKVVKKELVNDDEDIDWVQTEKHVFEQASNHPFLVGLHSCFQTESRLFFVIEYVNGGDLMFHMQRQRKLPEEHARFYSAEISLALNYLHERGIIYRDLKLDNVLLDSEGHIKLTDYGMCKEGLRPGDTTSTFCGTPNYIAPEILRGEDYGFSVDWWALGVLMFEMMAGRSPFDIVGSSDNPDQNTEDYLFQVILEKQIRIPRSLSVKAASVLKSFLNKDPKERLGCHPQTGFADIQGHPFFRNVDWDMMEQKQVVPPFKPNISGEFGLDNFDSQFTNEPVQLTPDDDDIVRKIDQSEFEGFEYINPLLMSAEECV

[10] = biological target: Dual specificity tyrosine-phosphorylation-regulated kinase 1B (Homo sapiens, UniProt Q9Y463); assay: Selectivity interaction (KinomeScan (DiscoverX)) EUB0000607a DYRK1B; settings: at 10 µM
[11] = biological target: G protein-coupled receptor kinase 4 (Homo sapiens) (UniProt P32298); assay: Selectivity interaction (KinomeScan (DiscoverX)) EUB0000666a GRK4; settings: at 10 µM
G protein-coupled receptor kinase 4 (Homo sapiens), sequence (P32298 whole entry, looked up): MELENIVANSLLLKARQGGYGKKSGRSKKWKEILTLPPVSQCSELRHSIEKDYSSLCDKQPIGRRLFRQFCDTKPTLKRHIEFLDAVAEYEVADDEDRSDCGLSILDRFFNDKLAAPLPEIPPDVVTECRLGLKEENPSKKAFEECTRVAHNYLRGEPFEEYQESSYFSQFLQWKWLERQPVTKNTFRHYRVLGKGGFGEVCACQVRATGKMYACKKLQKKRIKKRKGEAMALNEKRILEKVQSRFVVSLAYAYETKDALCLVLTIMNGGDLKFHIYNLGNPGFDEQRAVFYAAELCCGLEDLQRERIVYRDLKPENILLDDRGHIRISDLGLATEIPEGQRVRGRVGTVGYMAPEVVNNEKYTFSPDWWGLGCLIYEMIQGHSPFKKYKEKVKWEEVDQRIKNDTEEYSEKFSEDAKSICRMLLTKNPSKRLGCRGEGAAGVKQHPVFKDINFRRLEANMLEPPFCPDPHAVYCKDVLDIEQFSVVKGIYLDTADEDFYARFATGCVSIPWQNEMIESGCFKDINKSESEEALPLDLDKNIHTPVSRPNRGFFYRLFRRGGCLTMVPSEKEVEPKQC

NT-3 growth factor receptor, sequence (Q16288 32-839 limits assumed): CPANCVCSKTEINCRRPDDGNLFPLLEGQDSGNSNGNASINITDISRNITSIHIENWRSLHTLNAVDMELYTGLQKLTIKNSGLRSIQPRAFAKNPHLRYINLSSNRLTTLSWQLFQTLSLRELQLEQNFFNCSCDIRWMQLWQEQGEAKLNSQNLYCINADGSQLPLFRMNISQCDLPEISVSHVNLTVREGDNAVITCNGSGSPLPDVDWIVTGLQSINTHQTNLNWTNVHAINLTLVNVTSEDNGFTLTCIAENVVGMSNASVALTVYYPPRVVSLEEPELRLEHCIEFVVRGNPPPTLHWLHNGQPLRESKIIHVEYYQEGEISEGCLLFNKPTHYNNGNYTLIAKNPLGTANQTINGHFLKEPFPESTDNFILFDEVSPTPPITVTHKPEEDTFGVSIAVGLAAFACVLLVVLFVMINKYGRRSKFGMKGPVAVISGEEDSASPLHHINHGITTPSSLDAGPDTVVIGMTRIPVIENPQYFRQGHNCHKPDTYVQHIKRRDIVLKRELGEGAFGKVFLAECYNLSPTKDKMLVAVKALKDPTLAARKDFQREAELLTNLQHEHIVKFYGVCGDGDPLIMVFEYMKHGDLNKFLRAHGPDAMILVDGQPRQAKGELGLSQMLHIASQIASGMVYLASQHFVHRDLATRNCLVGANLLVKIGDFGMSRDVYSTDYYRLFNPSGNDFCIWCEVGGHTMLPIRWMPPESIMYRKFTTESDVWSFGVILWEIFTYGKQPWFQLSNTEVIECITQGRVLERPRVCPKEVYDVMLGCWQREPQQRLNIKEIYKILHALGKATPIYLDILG
Macrophage colony-stimulating factor 1 receptor (Homo sapiens), sequence (P07333 whole entry): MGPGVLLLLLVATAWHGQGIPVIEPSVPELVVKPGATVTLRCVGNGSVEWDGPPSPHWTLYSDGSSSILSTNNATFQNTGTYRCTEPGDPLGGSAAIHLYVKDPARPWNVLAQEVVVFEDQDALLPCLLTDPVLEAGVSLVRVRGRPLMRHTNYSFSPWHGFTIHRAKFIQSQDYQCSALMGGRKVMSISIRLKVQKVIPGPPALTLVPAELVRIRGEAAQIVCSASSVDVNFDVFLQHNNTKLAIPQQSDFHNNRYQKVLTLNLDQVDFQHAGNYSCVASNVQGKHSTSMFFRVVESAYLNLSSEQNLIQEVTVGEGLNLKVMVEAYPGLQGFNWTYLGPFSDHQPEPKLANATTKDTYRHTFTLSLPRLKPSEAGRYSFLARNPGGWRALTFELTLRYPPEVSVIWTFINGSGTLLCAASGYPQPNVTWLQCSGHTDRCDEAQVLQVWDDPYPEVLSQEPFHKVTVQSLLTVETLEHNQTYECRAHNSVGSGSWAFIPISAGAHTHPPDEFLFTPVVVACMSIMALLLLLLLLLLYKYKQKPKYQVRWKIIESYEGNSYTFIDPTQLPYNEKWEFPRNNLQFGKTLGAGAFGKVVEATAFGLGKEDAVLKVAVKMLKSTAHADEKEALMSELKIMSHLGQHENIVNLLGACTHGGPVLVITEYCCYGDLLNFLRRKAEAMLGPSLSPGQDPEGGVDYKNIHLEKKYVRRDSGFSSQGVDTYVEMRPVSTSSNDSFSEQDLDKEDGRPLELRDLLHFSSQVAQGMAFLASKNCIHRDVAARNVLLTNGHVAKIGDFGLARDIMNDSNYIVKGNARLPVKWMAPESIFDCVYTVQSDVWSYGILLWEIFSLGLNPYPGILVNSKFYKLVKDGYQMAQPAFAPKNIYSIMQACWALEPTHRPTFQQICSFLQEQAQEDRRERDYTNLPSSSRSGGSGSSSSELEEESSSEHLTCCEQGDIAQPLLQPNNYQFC
Ribosomal protein S6 kinase alpha-1, sequence (Q15418 whole entry): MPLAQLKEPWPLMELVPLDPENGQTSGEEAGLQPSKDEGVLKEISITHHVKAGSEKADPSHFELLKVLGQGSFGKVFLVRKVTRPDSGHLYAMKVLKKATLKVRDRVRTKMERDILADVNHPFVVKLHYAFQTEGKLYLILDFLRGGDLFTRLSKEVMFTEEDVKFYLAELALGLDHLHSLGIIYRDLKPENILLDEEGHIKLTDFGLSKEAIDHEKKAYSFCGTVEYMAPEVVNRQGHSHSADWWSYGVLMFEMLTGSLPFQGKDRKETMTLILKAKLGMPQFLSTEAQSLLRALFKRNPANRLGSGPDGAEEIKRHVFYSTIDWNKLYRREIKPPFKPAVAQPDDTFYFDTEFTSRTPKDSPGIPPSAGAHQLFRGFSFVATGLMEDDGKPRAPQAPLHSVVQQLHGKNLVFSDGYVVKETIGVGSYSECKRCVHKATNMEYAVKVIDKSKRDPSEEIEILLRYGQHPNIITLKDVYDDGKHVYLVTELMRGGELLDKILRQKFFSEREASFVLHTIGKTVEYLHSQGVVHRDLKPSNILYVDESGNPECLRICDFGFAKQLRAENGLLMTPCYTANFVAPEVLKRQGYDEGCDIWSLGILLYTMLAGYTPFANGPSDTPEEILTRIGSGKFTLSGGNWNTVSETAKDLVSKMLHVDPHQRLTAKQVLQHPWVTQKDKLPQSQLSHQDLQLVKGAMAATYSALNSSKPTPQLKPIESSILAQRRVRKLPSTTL
Dual specificity tyrosine-phosphorylation-regulated kinase 1B, sequence (Q9Y463 whole entry, looked up): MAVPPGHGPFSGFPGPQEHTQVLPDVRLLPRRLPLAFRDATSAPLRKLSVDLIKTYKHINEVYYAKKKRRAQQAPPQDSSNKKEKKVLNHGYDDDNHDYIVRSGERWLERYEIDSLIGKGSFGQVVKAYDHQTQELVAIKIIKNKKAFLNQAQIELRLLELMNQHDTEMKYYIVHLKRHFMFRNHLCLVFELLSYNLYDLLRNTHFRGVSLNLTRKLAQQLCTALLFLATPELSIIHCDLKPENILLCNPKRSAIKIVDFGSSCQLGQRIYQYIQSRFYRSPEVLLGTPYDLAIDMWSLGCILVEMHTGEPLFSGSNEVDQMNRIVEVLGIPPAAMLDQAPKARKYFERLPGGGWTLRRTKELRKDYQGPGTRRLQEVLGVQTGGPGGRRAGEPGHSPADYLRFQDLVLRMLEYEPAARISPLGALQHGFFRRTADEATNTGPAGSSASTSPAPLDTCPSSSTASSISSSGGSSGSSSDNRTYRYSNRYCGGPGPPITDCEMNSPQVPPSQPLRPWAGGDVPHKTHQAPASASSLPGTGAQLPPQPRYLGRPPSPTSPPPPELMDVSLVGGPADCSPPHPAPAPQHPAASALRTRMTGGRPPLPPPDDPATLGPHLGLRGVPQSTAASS
Serine/threonine-protein kinase VRK2 (Homo sapiens), sequence (Q86Y07 whole entry): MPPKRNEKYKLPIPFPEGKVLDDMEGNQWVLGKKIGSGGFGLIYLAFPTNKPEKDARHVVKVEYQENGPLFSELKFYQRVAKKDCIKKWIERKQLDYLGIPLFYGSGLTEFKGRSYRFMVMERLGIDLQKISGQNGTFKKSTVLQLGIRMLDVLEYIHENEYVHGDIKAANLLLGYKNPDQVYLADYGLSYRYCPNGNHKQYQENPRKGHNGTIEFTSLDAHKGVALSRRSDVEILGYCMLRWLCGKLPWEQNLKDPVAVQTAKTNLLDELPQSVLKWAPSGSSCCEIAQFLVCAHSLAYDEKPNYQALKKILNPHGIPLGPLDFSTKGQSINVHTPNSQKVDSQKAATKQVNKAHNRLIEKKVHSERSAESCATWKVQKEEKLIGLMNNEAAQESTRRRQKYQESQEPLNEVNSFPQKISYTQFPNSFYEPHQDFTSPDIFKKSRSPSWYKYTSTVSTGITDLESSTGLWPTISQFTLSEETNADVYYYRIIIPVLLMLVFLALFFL
Protein kinase C beta type, sequence (P05771 2-671 limits assumed): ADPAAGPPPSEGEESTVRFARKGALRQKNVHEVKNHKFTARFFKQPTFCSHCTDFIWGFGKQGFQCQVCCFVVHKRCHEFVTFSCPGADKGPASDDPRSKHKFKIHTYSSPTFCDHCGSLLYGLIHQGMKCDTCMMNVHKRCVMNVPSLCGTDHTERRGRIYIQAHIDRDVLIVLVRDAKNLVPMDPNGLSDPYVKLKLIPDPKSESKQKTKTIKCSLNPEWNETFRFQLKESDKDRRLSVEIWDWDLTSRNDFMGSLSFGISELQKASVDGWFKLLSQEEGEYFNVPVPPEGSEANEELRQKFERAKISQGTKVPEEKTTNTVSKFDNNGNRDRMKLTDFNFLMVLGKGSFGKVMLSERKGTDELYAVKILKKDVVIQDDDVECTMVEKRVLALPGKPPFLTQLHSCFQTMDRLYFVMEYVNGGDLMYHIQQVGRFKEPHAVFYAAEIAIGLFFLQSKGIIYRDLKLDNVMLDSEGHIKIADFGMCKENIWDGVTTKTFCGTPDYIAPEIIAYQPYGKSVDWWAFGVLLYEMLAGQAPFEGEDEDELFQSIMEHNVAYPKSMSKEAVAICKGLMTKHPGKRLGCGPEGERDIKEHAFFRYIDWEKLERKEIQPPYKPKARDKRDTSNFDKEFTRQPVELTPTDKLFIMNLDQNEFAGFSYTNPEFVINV

- % of inhibition [1]: 50%
Structure (SMILES): CCc1cc(Nc2nccc(-c3c(-c4ccc(OC)c(C(=O)Nc5c(F)cccc5F)c4)nc4ccccn34)n2)c(OC)cc1N1CCC(N2CCN(S(C)(=O)=O)CC2)CC1

- % of inhibition [2]: -2%
Structure (SMILES): CN1Cc2nccc(-c3cn(C)nc3-c3ccc(F)cc3)c2C1=O

- % of inhibition [3]: -24%
Structure (SMILES): Cn1cc(-n2cnc3c(NCc4nc5cc(Cl)c(Cl)cc5[nH]4)nc(N4CCOCC4)nc32)cn1

Structure (SMILES): Nc1cnc(N2CCc3cc(S(=O)(=O)Nc4c(F)cc(Cl)cc4F)cc(N4CCCC4=O)c32)nc1 [TP-020n]
- % of control [4]: 100%

Structure (SMILES): C=CC(=O)Nc1cc(-n2c(=O)ccc3cnc4ccc(-c5ccc(NS(C)(=O)=O)cc5)cc4c32)ccc1C
- % of control ([5]; at 1 µM): 100%
- % of control ([5]; at 10 µM): 100%

Structure (SMILES): CN(C)CCOc1ccc(-c2nc(-c3ccncc3)c(-c3ccc4c(c3)CC/C4=N\O)[nH]2)cc1
- % of control [6]: 94%

Structure (SMILES): N#Cc1cccc(-c2c[nH]c3ncnc(N4CCOCC4)c23)c1
- % of control [7]: 27%
- % of inhibition [8]: -6%

Structure (SMILES): O[C@H]1CC[C@H](Nc2ncc3nc(Nc4c(F)cc(F)cc4F)n([C@H]4CCOC4)c3n2)CC1
- % of control [9]: 100%

Structure (SMILES): CNC(=O)Nc1ccc(-c2nc(N3CC4CCC(C3)O4)c3cnn(C4CCC5(CC4)OCCO5)c3n2)cc1
- % of control [10]: 100%

Structure (SMILES): O=C(NOC[C@H](O)CO)c1ccc(F)c(F)c1Nc1ccc(I)cc1F
- % of control [11]: 100%
